The values below come from patent publication US20100311798A1, “2-AMINOOXAZOLINES AS TAAR1 LIGANDS” (priority 2009, published 2010).

The target of this assay is mouse TAAR1 (Mus musculus, UniProt Q923Y8). The assay is described as follows: Radioligand binding to TAAR1 in membranes of stably transfected HEK293 cells.
mouse TAAR1, sequence (Q923Y8 whole entry): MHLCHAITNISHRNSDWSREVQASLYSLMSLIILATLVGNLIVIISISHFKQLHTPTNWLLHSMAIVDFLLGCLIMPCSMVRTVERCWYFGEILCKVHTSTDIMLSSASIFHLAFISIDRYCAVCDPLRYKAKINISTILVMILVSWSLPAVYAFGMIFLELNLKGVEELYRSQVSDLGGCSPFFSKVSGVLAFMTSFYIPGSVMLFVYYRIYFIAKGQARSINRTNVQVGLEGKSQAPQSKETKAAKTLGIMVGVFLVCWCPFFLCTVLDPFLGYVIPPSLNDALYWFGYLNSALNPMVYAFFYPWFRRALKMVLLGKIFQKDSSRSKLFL
In the case of `CCC1OC(N)=N[C@H]1CCc1ccccc1` (stereo partly drawn) [Example 9, (S)-5-Ethyl-4-phenethyl-4,5-dihydro-oxazol-2-ylamine], the Ki (usually a dissociation constant, usually derived from enzyme kinetics or from competition with a known ligand) came out at 17.1 nM.
For `C[C@H]1OC(N)=N[C@H]1CCCc1ccc(Cl)cc1` [Example 17, (4S,5R)-4-[3-(4-Chloro-phenyl)-propyl]-5-methyl-4,5-dihydro-oxazol-2-ylamine], the inhibition constant Ki came out at 0.3 nM.
Same read-out and setting: then `C[C@@H]1OC(N)=N[C@H]1CCc1ccc(Cl)c(Cl)c1` [Example 15a, (4S,5S)-4-[2-(3,4-dichloro-phenyl)-ethyl]-5-methyl-4,5-dihydro-oxazol-2-ylamine], with 8 nM.
For `c1ccc2c(c1)CCCC2C1=NCCN1` (racemic) [reference compound], the affinity, expressed as Kd, was 60 nM.
With `C[C@@H]1OC(N)=N[C@H]1CCc1ccc(Cl)cc1` [Example 14a, (4S,5S)-4-[2-(4-chloro-phenyl)-ethyl]-5-methyl-4,5-dihydro-oxazol-2-ylamine], the inhibition constant (Ki) was 1.8 nM.
For the compound `CC1OC(N)=N[C@H]1Cc1ccccc1` (single isomer, unassigned) [Example 12], affinity was put at a Ki of 159 nM.
`C[C@H]1OC(N)=N[C@H]1CCc1ccc(Cl)cc1` [Example 14, (4S,5R)-4-[2-(4-Chloro-phenyl)-ethyl]-5-methyl-4,5-dihydro-oxazol-2-ylamine] registered a Ki of 0.7 nM.
Still for that read-out and setting: to `CC1OC(N)=N[C@H]1CCc1ccccc1` (single isomer, unassigned) [Example 8] belongs 1.7 nM.
Still for that read-out and setting: then `C[C@H]1OC(N)=N[C@H]1Cc1ccccc1` [Example 12a, (4S,5R)-4-benzyl-5-methyl-4,5-dihydro-oxazol-2-ylamine], with 175 nM; and `C[C@@H]1OC(N)=N[C@H]1CCC1CCCCC1` [Example 13, (4S,5S)-4-(2-Cyclohexyl-ethyl)-5-methyl-4,5-dihydro-oxazol-2-ylamine], with 13.3 nM.
`C[C@H]1OC(N)=N[C@H]1CCC1CCCCC1` [Example 13a, (4S,5R)-4-(2-cyclohexyl-ethyl)-5-methyl-4,5-dihydro-oxazol-2-ylamine] displayed an inhibitory constant (Ki) of 52.7 nM.
On the same count and under the same terms, to `C[C@@H]1OC(N)=N[C@H]1CCCc1ccccc1` [Example 11a, (4S,5S)-5-methyl-4-(3-phenyl-propyl)-4,5-dihydro-oxazol-2-ylamine] belongs 5.8 nM.
The compound `C[C@H]1OC(N)=N[C@H]1CCc1ccccc1` [Example 8a, (4S,5R)-5-methyl-4-phenethyl-4,5-dihydro-oxazol-2-ylamine] came in with an inhibition constant (Ki) of 3.1 nM.
The same measure, in the same setting: then `C[C@H]1OC(N)=N[C@H]1CCCc1ccccc1` [Example 11, (4S,5R)-5-Methyl-4-(3-phenyl-propyl)-4,5-dihydro-oxazol-2-ylamine], with 0.9 nM; and `C[C@@H]1OC(N)=N[C@@H]1CCc1ccccc1` [Example 7, (4R,5S)-5-Methyl-4-phenethyl-4,5-dihydro-oxazol-2-ylamine], with 27.3 nM.
`C[C@H]1OC(N)=N[C@H]1CCc1ccc(Cl)c(Cl)c1` [Example 15, (4S,5R)-4-[2-(3,4-Dichloro-phenyl)-ethyl]-5-methyl-4,5-dihydro-oxazol-2-ylamine] yielded an inhibitory constant (Ki) of 0.6 nM.
